Measurements from patent publication US7160733B2, “Ligand specific to β2-glycoprotein I and use thereof” (priority 2001, dated 2007).

What was measured:
EY2C9 = experiment: ELISA on solid-phase lipid (ligand)-coated plate: EY2C9 binding in presence of β2-GPI; parameters: species or system human
Protocol: (§1) Binding to extracted lipids: A microtiter plate (Immulon 1B, Dynex Technologies Inc.) was coated with lipids extracted from LDLs (50 μg/mL, 50 μL/well) by ethanol evaporation. The wells were blocked with PBS containing 1% BSA for one hour and the wells were incubated with 30 μg/mL of β2-GPI for one hour. Then, β2-GPI binding was detected using Cof-22 and HRP-labeled anti-mouse IgG antibodies. Alternatively, an anti-β2-GPI autoantibody (Cof-22, WB-CAL-1, or EY2C9) was diluted with a 0.3% BSA-containing PBS, and the diluted antibody was added to the coated plate (1.0 μg/mL, 100 μL/well) and incubated with β2-GPI (15 μg/mL) for one hour. The binding of the antibody was detected by an HRP-labeled anti-mouse IgG /or an anti-human IgM. The color was developed with H2O2 and o-phenylenediamine, and OD was measured at 490 nm. Between these steps, extensive washing were done using PBS containing 0.05% Tween 20.
(§2) Synthesized oxLig-1 (50 μg/mL, 50 μL/well) was adsorbed by evaporation on a polystyrene plate (Immulon 1B; Dynex Technologies Inc.), and the plate was then blocked with 1% BSA. Serum samples (diluted 1:100 with PBS containing 0.3% BSA) were incubated in the wells with β2-GPI (15 μg/mL) or other proteins for one hour at room temperature. Antibody binding was detected with HRP-labeled anti-human IgG. Further steps were performed through a method as described in “anti-β2-GPI ELISA.”
(§3) CL (50 μg/mL, 50 μL/well) was adsorbed on a polystyrene plate (Immulon 1B), and further steps were performed through a method as described in “ELISA for antibodies against a protein-oxLig-1 complex.”

[1] = target: T1, β2-GPI and anti-β2-GPI antibodies (Cof-22, WB-CAL-1, EY2C9) (Homo sapiens, UniProt P02749); experiment: TLC ligand blot with β2-GPI and anti-β2-GPI antibodies; format: binding; details: result in words
T1 construct: β2-GPI was purified from normal human plasma as described in [35] with slight modification; from tissue; host or cells: β2-GPI from pooled normal human plasma
T1 sequence (P02749 20-345): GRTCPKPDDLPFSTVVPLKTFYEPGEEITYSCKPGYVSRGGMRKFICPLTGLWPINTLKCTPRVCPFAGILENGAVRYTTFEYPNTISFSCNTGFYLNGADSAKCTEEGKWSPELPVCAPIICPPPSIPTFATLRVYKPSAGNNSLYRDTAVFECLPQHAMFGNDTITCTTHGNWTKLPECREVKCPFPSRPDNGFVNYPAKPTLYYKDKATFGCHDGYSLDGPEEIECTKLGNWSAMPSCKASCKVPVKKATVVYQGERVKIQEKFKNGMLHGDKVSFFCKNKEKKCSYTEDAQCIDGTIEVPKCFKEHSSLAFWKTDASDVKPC
Excerpt: Extracted lipids were spotted on a Polygram silica gel plate (product of Machery-Nagel) and developed in chloroform/methanol/30% ammonia/water (120:80:10:5, v/v/v/v, hereinafter referred to as solvent A). The plate was stained with I2 vapor, or with a spray of molybdenum blue, of 2N sulfuric acid containing 2% orcin, or of glacial acetic acid/sulfuric acid (19:1, v/v) (Lieberman-Burchard reaction). Alternatively, the developed plate was subjected to ligand blot with β2-GPI and an anti-β2-GPI antibody. TLC plates were blocked with PBS containing 1% bovine serum albumin (BSA) and were subsequently incubated with β2-GPI, anti-β2-GPI antibodies (Cof-22, WB-CAL-1, or EY2C9), and HRP-labeled anti-mouse IgG antibodies or anti-human IgM antibodies for one hour. In each step, plates were extensively washed with PBS. The color was developed with H2O2 and 4-methoxy-1-naphtol (product of Aldrich). The ligand-enriched bands scraped from the TLC plate were subjected to another TLC in chloroform/methanol (8:1, v/v) (hereinafter referred to as solvent B). […]
A fraction rich in a ligand (originating from oxLDL) obtained by two-step TLC was analyzed by reversed phase HPLC on a Sephasil Peptide C-18 5-μm column (4.6 mm×250 mm; product of Amersham-Pharmacia Biotech). […]

APS-2 = experiment: ELISA on solid-phase lipid-coated plate: binding of antibodies of APS patient serum APS-2; parameters: species or system human; details: Experiment 1; Absorbance, mean ± SD, n = 3; solid-phase lipid, β2-GPI 15 μg/mL; serum with β2-GPI removed
Protocol: To eliminate endogenous β2-GPI in some experiments, serum samples were passed through a heparin-Sepharose column. The effluent was dialyzed against PBS and was used for ELISAs.
as §2, §3

β2-GPI = target: T2, β2-GPI (Homo sapiens, UniProt P02749); experiment: ELISA on solid-phase lipid (ligand)-coated plate: β2-GPI binding detected with Cof-22
T2 construct: β2-GPI was purified from normal human plasma as described in [35] with slight modification; from tissue; host or cells: pooled normal human plasma from healthy subjects
T2 sequence (P02749 20-345): T1 sequence (P02749 20-345)
Protocol: as §1, §2, §3

[2] = Experiment 1, Absorbance, mean ± SD, n = 3, solid-phase lipid, β2-GPI 15 μg/mL
[3] = absorbance at 490 nm, mean ± SD (n = 3), solid-phase ligand not methylated

**Q.** How did the “Binding of β2-GPI-dependent aCL, EY2C9” value (EY2C9; [2]) turn out when CC(C)CCC[C@@H](C)[C@H]1CC[C@H]2[C@@H]3C(=O)C=C4C[C@@H](OC(=O)CCCCCCCC(=O)O)CC[C@]4(C)[C@H]3CC[C@]12C [oxLig-1, 9-oxo-9-(7-ketocholest-5-en-3β-yloxy)nonanoic acid] was run?
**A.** 0.915 ± 0.072

**Q.** And the “EY2C9 binding, No treatment” value (EY2C9; [3])?
**A.** 1.458 +/− 0.062

**Q.** And the “ligand blot: interaction of β2-GPI and anti-β2-GPI antibodies with ligand” value [1]?
**A.** positively stained

**Q.** What about the “ligand blot: interaction of β2-GPI and anti-β2-GPI antibodies with ligand” value ([1]; listed as Synthesized oxLig-1) of the same molecule?
**A.** same Rf position and binding characteristics

**Q.** What about the “Binding of β2-GPI-dependent aCL, APS-2” value (APS-2) of the same molecule?
**A.** 1.222 ± 0.057

**Q.** And the “Binding of β2-GPI-dependent aCL, Cof-22” value (β2-GPI; [2])?
**A.** 1.066 ± 0.114

**Q.** And the “β2-GPI binding (Cof-22 binding), No treatment” value (β2-GPI; [3])?
**A.** 1.307 +/− 0.105

**Q.** What about the “β2-GPI binding to lipid” value (β2-GPI; result in words (discussion)) of the same molecule?
**A.** significant bonding
